From PMC2949542 (Analytical biochemistry, 2010)
Like-named read-outs stand apart in the source and are kept apart here.

What was measured:
[1] = target: T1, carbonic anhydrase II (CAII) (Bos taurus, UniProt P00921); assay: SPR standard injection, ADP over negative-control CAII surface; format: binding; settings: standard injections, two-fold dilution series from 300 uM, 25 °C
[2] = target: T1, carbonic anhydrase II (CAII); settings: read-out: KD (μM) ProteOn (2); BioRad ProteOn XPR36; cited from earlier work
[3] = target: T1, carbonic anhydrase II (CAII); settings: read-out: KD (μM) Biacore (8); benchmark study on Biacore platforms; cited from earlier work
[4] = target: T1, carbonic anhydrase II (CAII); assay: SPR; settings: for kon: read-out: ka

T1 sequence (P00921 whole entry): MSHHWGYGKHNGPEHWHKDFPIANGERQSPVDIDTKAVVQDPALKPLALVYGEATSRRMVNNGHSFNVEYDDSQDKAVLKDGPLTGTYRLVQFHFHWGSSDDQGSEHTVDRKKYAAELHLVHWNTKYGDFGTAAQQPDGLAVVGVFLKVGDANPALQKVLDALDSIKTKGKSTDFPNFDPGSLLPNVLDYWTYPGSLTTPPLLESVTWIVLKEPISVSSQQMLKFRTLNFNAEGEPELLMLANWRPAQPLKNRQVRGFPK

Row | SMILES | binding on negative-control CAII surface [1] | Kd [2] | Kd [3] | Kd [4] | kon [4]
1 | Nc1ncnc2c1ncn2[C@@H]1O[C@H](COP(=O)(O)OP(=O)(O)O)[C@@H](O)[C@H]1O [ADP, adenosine diphosphate] | no reliable ADP binding was observed | – | – | – | –
2 | NS(=O)(=O)c1ccccc1 [Benzenesulfonamide] | – | 1.1 µM | 0.8 µM | 970 nM | 135000 M⁻¹ s⁻¹
3 | NCc1ccc(S(N)(=O)=O)cc1 [4-(Aminomethyl)benzenesulfonamide] | – | – | 3 µM | 5200 nM | 7300 M⁻¹ s⁻¹
4 | CN(C)c1cccc2c(S(N)(=O)=O)cccc12 [Dansylamide] | – | 0.8 µM | 0.4 µM | – | –
5 | NS(=O)(=O)c1cccc(S(N)(=O)=O)c1 [1,3-Benzenedisulfonamide] | – | 0.64 µM | 0.8 µM | 613 nM | 179000 M⁻¹ s⁻¹
